Experimental findings from patent US8637510B2, “Morpholinothiazoles as alpha 7 positive allosteric modulators” (Janssen Pharmaceutica NV, priority 2009, dated 2014) are described below.

In this assay the target is T1, human alpha 7-wt nAChR (Homo sapiens, UniProt P36544).
T1 construct: expressed in transfected cells
Nature of the assay: Ca2+ flux imaging (FDSS) (Protocol B). In kind it is cell-based. The conditions noted are these: for Emax: efficacy of 100 μM choline defined as 100% in the absence of a PAM, read-out: a7-PAM-G_[33]_Eff_Curve_FI % Efficacy; for EC50: potentiation of 100 μM choline, compounds 0.01 μM to 30 μM, read-out: a7-PAM-G_[33]_pEC50 pEC50 (converted). The method, then:
Ca^2+ Flux Imaging (FDSS) (Protocol B)
• Hanks buffered saline solution (HBSS, Invitrogen, Belgium), supplemented with 10 mM HEPES (Invitrogen, Belgium), CaCl2 to a final concentration of 5 mM, 0.1% Bovine serum albumin (Sigma-Aldrich NV, Belgium). b) Calcium-Sensitive Dye—Fluo-4AM • Fluo-4AM (Molecular Probes, USA) was dissolved in DMSO containing 10% Pluronic acid (Molecular Probes, USA) to give a stock solution which was diluted in assay buffer supplemented with 5 mM probenicid (Sigma, Aldrich NV, Belgium) to give a final concentration of 2 μM. c) 384-Well Plates • Black-sided, transparent bottomed 384 well plates coated with poly-D-lysine, PDL pre-coated (Corning, Incorporated, USA) d) Calcium Flux Measurement • A Functional drug screening system (FDSS, Hamamatsu) was used to measure intracellular free-calcium flux signals. Method
Monolayers of human alpha 7-wt nAChR-expressing cells were grown in black-sided, transparent bottomed 384 well plates coated with PDL for 24 hours prior to loading with a fluorescent calcium indicator, fluo-4AM for up to 120 minutes.
PAM activity was detected in real time by applying the compounds to be tested to the loaded cells along with an alpha 7 nicotinic receptor agonist during constant monitoring of cellular fluorescence in a FDSS. Compounds giving peak fluorescent responses greater than the response due to agonist alone, were considered to be alpha 7 nAChR PAMs. The alpha 7 nicotinic receptor agonist was choline, applied at a sub-maximal concentration of 100 μM. In a further setting of the present invention the compounds were applied prior to the alpha 7 nicotinic receptor agonist, in a particular 10 minutes prior to the agonist.
A control response to choline was calculated on each plate from the difference in peak in fluorescence in wells receiving either choline or assay buffer alone. Compounds of the present invention were tested at a concentration range from 0.01 μM to 30 μM. Compounds were considered to have an interesting activity when they potentiated the choline signal at least with 200% when tested at a concentration of 30 μM (the efficacy of 100 μM choline was defined as 100% in the absence of a PAM). An EC50 (or pEC50) was determined as a concentration relating to half the maximal effect, when a clear sigmoidal curve with top plateau was obtained.
For orientation: A change in cytosolic calcium serves as a functional read-out for many receptors and channels.

T1 sequence (P36544 23-502): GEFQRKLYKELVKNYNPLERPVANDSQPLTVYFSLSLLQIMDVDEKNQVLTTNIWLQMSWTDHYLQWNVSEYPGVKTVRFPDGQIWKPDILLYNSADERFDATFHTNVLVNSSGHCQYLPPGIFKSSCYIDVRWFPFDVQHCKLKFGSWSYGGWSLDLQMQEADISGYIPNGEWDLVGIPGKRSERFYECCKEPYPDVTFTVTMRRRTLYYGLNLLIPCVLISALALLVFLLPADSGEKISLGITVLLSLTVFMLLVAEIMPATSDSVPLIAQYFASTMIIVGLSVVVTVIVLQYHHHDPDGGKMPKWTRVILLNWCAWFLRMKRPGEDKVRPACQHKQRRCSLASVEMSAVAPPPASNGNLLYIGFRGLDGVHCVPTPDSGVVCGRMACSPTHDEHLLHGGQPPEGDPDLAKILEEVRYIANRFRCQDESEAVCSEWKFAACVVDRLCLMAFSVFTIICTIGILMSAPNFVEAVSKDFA

For the molecule `Cc1cc(-c2sc(N3C[C@@H](C)O[C@@H](C)C3)nc2CNC(=O)c2cnccn2)cc(C)n1` [Compound 138, N-[[2-[(2R,6S)-2,6-dimethyl-4-morpholinyl]-5-(2,6-dimethyl-4-pyridinyl)-4-thiazolyl]methyl]-2-pyrazinecarboxamide], the Emax is 837% and the EC50 is 4680 nM.

In the case of `Cc1cc(-c2sc(N3C[C@@H](C)O[C@@H](C)C3)nc2CNC(=O)c2ccn(C)n2)cc(C)n1` [Compound 142, N-[[2-[(2R,6S)-2,6-dimethyl-4-morpholinyl]-5-(2,6-dimethyl-4-pyridinyl)-4-thiazolyl]methyl]-1-methyl-1H-pyrazole-3-carboxamide], the Emax was determined as 669%.

In the case of `Cc1cc(-c2sc(N3C[C@@H](C)O[C@@H](C)C3)nc2CNC(=O)C(F)(F)F)cc(C)n1` [Compound 177, N-[[2-[(2R,6S)-2,6-dimethyl-4-morpholinyl]-5-(2,6-dimethyl-4-pyridinyl)-4-thiazolyl]methyl]-2,2,2-trifluoro-acetamide], the Emax was 26%.

Consider `COCCC(=O)NCc1nc(N2C[C@@H](C)O[C@@H](C)C2)sc1-c1cc(C)nc(C)c1` [Compound 53, N-[[2-[(2R,6S)-2,6-dimethyl-4-morpholinyl]-5-(2,6-dimethyl-4-pyridinyl)-4-thiazolyl]methyl]-3-methoxy-propanamide], for which the EC50 is 2820 nM.

Take `Cc1cc(CC(=O)NCc2nc(N3C[C@@H](C)O[C@@H](C)C3)sc2-c2cc(C)nc(C)c2)on1` [Compound 167, N-[[2-[(2R,6S)-2,6-dimethyl-4-morpholinyl]-5-(2,6-dimethyl-4-pyridinyl)-4-thiazolyl]methyl]-3-methyl-5-isoxazoleacetamide]: the EC50 was 1230 nM.

Regarding `Cc1cc(-c2sc(N3C[C@@H](C)O[C@@H](C)C3)nc2CNC(=O)c2cc(C)n(C(C)(C)C)n2)cc(C)n1` [Compound 139, 1-(1,1-dimethylethyl)-N-[[2-[(2R,6S)-2,6-dimethyl-4-morpholinyl]-5-(2,6-dimethyl-4-pyridinyl)-4-thiazolyl]methyl]-5-methyl-1H-pyrazole-3-carboxamide], the Emax was 699% and the EC50 is 617 nM.

Consider `Cc1cc(-c2sc(N3C[C@@H](C)O[C@@H](C)C3)nc2CNC(=O)c2cccc(Cl)c2)ccn1` [Compound 91, 3-chloro-N-[[2-[(2R,6S)-2,6-dimethyl-4-morpholinyl]-5-(2-methyl-4-pyridinyl)-4-thiazolyl]methyl]-benzamide], for which the Emax is 445% and the EC50 was 407 nM.

`CCCC(=O)NCc1nc(N2CC(C)OC(C)C2)sc1-c1cc(C)nc(C)c1` (racemic) [Compound 61, N-[[2-[2,6-dimethyl-4-morpholinyl]-5-(2,6-dimethyl-4-pyridinyl)-4-thiazolyl]methyl]-butanamide]: the EC50 was 977 nM.

As to `Cc1cc(-c2sc(N3C[C@@H](C)O[C@@H](C)C3)nc2CNC(=O)c2ccc(C(F)(F)F)nc2C)cc(C)n1` [Compound 165, N-[[2-[(2R,6S)-2,6-dimethyl-4-morpholinyl]-5-(2,6-dimethyl-4-pyridinyl)-4-thiazolyl]methyl]-2-methyl-6-(trifluoromethyl)-3-pyridinecarboxamide], the EC50 was 49 nM.

Turning to `Cc1cc(-c2sc(N3CCOCC3)nc2CNC(=O)c2conc2C)cc(C)n1` [Compound 62, N-[[5-(2,6-dimethyl-4-pyridinyl)-2-(4-morpholinyl)-4-thiazolyl]methyl]-3-methyl-4-isoxazolecarboxamide], the Emax amounted to 633% and the EC50 was 4270 nM.

For `Cc1cc(-c2sc(N3C[C@@H](C)O[C@@H](C)C3)nc2CNC(=O)[C@H]2CCOC2)cc(C)n1` [Compound 28, (3S)-N-[[2-[(2R,6S)-2,6-dimethyl-4-morpholinyl]-5-(2,6-dimethyl-4-pyridinyl)-4-thiazolyl]methyl]tetrahydro-3-furancarboxamide], the Emax is 409% and the EC50 is 447 nM.

In the case of `Cc1cc(-c2sc(N3C[C@@H](C)O[C@@H](C)C3)nc2CNC(=O)CCCC(F)(F)F)cc(C)n1` [Compound 145, N-[[2-[(2R,6S)-2,6-dimethyl-4-morpholinyl]-5-(2,6-dimethyl-4-pyridinyl)-4-thiazolyl]methyl]-5,5,5-trifluoro-pentanamide], the EC50 was 148 nM.

`Cc1cc(-c2sc(N3C[C@@H](C)O[C@@H](C)C3)nc2CNC(=O)c2cc(C)sc2C)cc(C)n1` [Compound 162, N-[[2-[(2R,6S)-2,6-dimethyl-4-morpholinyl]-5-(2,6-dimethyl-4-pyridinyl)-4-thiazolyl]methyl]-2,5-dimethyl-3-thiophenecarboxamide]: the Emax was found to be 842% and the EC50 was 813 nM.

For the molecule `CC(=O)NCc1nc(N2C[C@@H](C)O[C@@H](C)C2)sc1-c1cc(C)nc(C)c1` [Compound 60, N-[[2-[(2R,6S)-2,6-dimethyl-4-morpholinyl]-5-(2,6-dimethyl-4-pyridinyl)-4-thiazolyl]methyl]-acetamide], the Emax was 495%.

As to `Cc1cc(-c2sc(N3C[C@@H](C)O[C@@H](C)C3)nc2CNC(=O)CC2CC2)cc(C2CC2)n1` [Compound 104, N-[[5-(2-cyclopropy1-6-methyl-4-pyridinyl)-2-[(2R,6S)-2,6-dimethyl-4-morpholinyl]-4-thiazolyl]methyl]-cyclopropaneacetamide], the Emax is 923% and the EC50 is 61.7 nM.

For `Cc1cc(-c2sc(N3CCOC[C@@H]3C)nc2CNC(=O)c2cc(C)on2)cc(C)n1` [Compound 186, N-[[5-(2,6-dimethyl-4-pyridinyl)-2-[(3S)-3-methyl-4-morpholinyl]-4-thiazolyl]methyl]-5-methyl-3-isoxazolecarboxamide], the Emax was 945% and the EC50 was 3800 nM.

On to `Cc1cc(-c2sc(N3C[C@@H](C)O[C@@H](C)C3)nc2CNC(=O)CCC(F)(F)F)cc(C)n1` [Compound 128, N-[[2-[(2R,6S)-2,6-dimethyl-4-morpholinyl]-5-(2,6-dimethyl-4-pyridinyl)-4-thiazolyl]methyl]-4,4,4-trifluoro-butanamide], for which the EC50 was 51.3 nM.

For `Cc1cc(-c2sc(N3C[C@@H](C)O[C@@H](C)C3)nc2CNC(=O)[C@@H]2CCCN2C)cc(C)n1` [Compound 52, (2S)-N-[[2-[(2R,6S)-2,6-dimethyl-4-morpholinyl]-5-(2,6-dimethyl-4-pyridinyl)-4-thiazolyl]methyl]-1-methyl-2-pyrrolidinecarboxamide], the Emax came out at 582% and the EC50 was 6170 nM.

On to `COc1cccc(C(=O)NCc2nc(N3C[C@@H](C)O[C@@H](C)C3)sc2-c2cc(C)nc(C)c2)n1` [Compound 140, N-[[2-[(2R,6S)-2,6-dimethyl-4-morpholinyl]-5-(2,6-dimethyl-4-pyridinyl)-4-thiazolyl]methyl]-6-methoxy-2-pyridinecarboxamide], for which the Emax stood at 451% and the EC50 was 1200 nM.

As to `Cc1cc(-c2sc(N3C[C@@H](C)O[C@@H](C)C3)nc2CNC(=O)c2ccccc2)cc(C)n1` [Compound 27, N-[[2-[(2R,6S)-2,6-dimethyl-4-morpholinyl]-5-(2,6-dimethyl-4-pyridinyl)-4-thiazolyl]methyl]-benzamide], the Emax amounted to 403% and the EC50 is 525 nM.
